Data on 20 molecules can be found in patent publication US12324802B2, “Modulators of cystic fibrosis transmembrane conductance regulator” (Vertex Pharmaceuticals Incorporated, priority 2020, dated 2025).

This assay deals with T1, CFTR (F508del/MF-HBE cells) (Homo sapiens, UniProt P13569, DEL508-508).
T1 construct: human bronchial epithelial (HBE) cells derived from CF subjects heterozygous for F508del and a minimal function CFTR mutation; endogenous in cells; host or cells: primary human bronchial epithelial cells from CF subjects (F508del/MF genotype)
T1 sequence (P13569 with tags, fused parts or gaps DEL508-508): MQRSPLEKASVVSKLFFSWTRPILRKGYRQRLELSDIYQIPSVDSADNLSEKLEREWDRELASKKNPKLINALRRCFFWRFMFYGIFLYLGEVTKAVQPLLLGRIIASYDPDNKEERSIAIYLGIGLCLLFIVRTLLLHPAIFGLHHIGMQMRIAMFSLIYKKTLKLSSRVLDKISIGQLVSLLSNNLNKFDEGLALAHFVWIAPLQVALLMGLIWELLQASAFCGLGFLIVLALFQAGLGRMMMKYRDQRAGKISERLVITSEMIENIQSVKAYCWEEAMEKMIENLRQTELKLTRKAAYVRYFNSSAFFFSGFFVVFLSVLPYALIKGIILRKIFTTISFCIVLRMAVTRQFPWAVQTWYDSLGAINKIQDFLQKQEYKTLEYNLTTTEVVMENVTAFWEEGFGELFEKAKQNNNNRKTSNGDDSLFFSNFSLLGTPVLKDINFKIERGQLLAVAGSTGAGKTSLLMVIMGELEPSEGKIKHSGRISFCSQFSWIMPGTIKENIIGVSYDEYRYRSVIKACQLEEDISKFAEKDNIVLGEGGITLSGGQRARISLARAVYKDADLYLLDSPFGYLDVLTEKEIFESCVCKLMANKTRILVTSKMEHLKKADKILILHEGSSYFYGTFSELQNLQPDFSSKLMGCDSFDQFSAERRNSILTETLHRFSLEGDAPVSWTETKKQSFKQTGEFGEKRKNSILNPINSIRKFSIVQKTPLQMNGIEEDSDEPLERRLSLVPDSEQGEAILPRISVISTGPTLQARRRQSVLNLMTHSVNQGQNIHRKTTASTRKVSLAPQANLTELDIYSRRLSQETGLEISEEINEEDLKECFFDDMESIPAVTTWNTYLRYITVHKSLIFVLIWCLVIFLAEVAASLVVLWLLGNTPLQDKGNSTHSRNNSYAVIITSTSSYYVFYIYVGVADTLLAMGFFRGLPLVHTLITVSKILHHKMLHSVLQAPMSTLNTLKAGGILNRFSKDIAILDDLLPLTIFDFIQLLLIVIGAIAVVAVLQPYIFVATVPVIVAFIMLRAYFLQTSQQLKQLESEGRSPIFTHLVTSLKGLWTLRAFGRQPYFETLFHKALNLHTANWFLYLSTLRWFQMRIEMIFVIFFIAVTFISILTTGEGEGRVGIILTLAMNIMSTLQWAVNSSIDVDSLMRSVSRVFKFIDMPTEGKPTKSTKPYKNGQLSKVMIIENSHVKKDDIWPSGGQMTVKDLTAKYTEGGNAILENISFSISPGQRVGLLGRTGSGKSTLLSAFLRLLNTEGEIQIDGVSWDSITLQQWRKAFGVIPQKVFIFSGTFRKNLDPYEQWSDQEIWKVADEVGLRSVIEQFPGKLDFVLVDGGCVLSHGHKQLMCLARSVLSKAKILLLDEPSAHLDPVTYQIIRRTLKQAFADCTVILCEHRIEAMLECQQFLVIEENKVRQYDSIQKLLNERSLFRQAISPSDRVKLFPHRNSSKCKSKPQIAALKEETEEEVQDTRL
The experiment in a line: Ussing chamber assay of CFTR-mediated short-circuit currents (identification of potentiator compounds). The format is cell-based. To be noted: CFTR-mediated ISC in F508del/MF-HBE cells; incubated 18-24 hours at 37° C. with 10 μM (14S)-8-[3-(2-{dispiro[2.0.2.1]heptan-7-yl}ethoxy)-1H-pyrazol-1-yl]-...-2,2,4-trione, 20% human serum. The method, then:
Ussing Chamber Assay of CFTR-Mediated Short-Circuit Currents
Ussing chamber experiments were performed using human bronchial epithelial (HBE) cells derived from CF subjects heterozygous for F508del and a minimal function CFTR mutation (F508del/MF-HBE) and cultured as previously described (Neuberger T, Burton B, Clark H, Van Goor F Methods Mol Biol 2011:741:39-54). After four days the apical media was removed, and the cells were grown at an air liquid interface for >14 days prior to use.
To isolate the CFTR-mediated short-circuit (ISC) current, F508del/MF-HBE grown on Costar® Snapwell™ cell culture inserts were mounted in an Ussing chamber and the transepithelial ISC was measured under voltage-clamp recording conditions (Vhold=0 mV) at 37° C. The basolateral solution contained (in mM) 145 NaCl, 0.83 K2HPO4, 3.3 KH2PO4, 1.2 MgCl2, 1.2 CaCl2), 10 Glucose, 10 HEPES (pH adjusted to 7.4 with NaOH) and the apical solution contained (in mM) 145 NaGluconate, 1.2 MgCl2, 1.2 CaCl2), 10 glucose, 10 HEPES (pH adjusted to 7.4 with NaOH) and 30 μM amiloride to block the epithelial sodium channel. Forskolin (20 μM) was added to the apical surface to activate CFTR, followed by apical addition of a CFTR inhibitor cocktail consisting of BPO, GlyH-101 and CFTR inhibitor 172 (each at 20 μM final assay concentration) to specifically isolate CFTR currents. The CFTR-mediated ISC (μA/cm^2) for each condition was determined from the peak forskolin response to the steady-state current following inhibition.
Identification of Potentiator Compounds
The activity of the CFTR potentiator compounds on the CFTR-mediated ISC was determined in Ussing chamber studies as described above. The F508del/MF-HBE cell cultures were incubated with the potentiator compounds at a range of concentrations in combination with 10 μM (14S)-8-[3-(2-{dispiro[2.0.2.1]heptan-7-yl}ethoxy)-1H-pyrazol-1-yl]-12,12-dimethyl-2λ^6-thia-3,9,11,18,23-pentaazatetracyclo [17.3.1.111,14.05,10]tetracosa-1(22),5,7,9,19(23),20-hexaene-2,2,4-trione for 18-24 hours at 37° C. and in the presence of 20% human serum. The concentration of potentiator compounds and (14S)-8-[3-(2-{dispiro[2.0.2.1]heptan-7-yl}ethoxy)-1H-pyrazol-1-yl]-12,12-dimethyl-2λ^6-thia-3,9,11,18,23-pentaazatetracyclo [17.3.1.111,14.05,10]tetracosa-1(22),5,7,9,19(23),20-hexaene-2,2,4-trione used during the 18-24 hours incubations was kept constant throughout the Ussing chamber measurement of the CFTR-mediated ISC to ensure compounds were present throughout the entire experiment. The efficacy and potency of the putative F508del potentiators was compared to that of the known Vertex potentiator, ivacaftor (N-[2,4-bis(1,1-dimethylethyl)-5-hydroxyphenyl]-1,4-dihydro-4-oxoquinoline-3-carboxamide).
With `CN1CCC=CCCC(=O)C2=NN=C(O2)c2nc1c(C(F)(F)F)cc2N` (mixture of isomers) [Compound 75, 17-amino-13-methyl-15-(trifluoromethyl)-19-oxa-3,4,13,18-tetrazatricyclo[12.3.1.12,5]nonadeca-1(18),2,4,9,14,16-hexaen-6-one], the EC50 is < 500 nM.
For the molecule `Nc1cc(-c2ccccc2)c2nc1-c1nnc(o1)C(O)(C(F)(F)F)CCCCC[C@@H]1CCCN21` (mixture of isomers) [Compound 118, (12R)-20-amino-18-phenyl-6-(trifluoromethyl)-22-oxa-3,4,16,21-tetraazatetracyclo[15.3.1.12,5.012,16]docosa-1(21),2,4,17,19-pentaen-6-ol], the concentration giving a half-maximal response (EC50) was > 1000 nM.
Consider `Nc1cc(C2CCOCC2)c2nc1-c1nnc(o1)C(O)(C(F)(F)F)CCCCC[C@@H]1CCCN21` (mixture of isomers) [Compound 123, (12R)-20-amino-18-(oxan-4-yl)-6-(trifluoromethyl)-22-oxa-3,4,16,21-tetraazatetracyclo[15.3.1.12,5.012,16]docosa-1(21),2,4,17,19-pentaen-6-ol], for which the half-maximal effective concentration (EC50) was > 1000 nM.
As for `Nc1cc(-c2ccncc2)c2nc1-c1nnc(o1)C(O)(C(F)(F)F)CCCCC[C@@H]1CCCN21` (mixture of isomers) [Compound 125, (12R)-20-amino-18-(pyridin-4-yl)-6-(trifluoromethyl)-22-oxa-3,4,16,21-tetraazatetracyclo[15.3.1.12,5.012,16]docosa-1(21),2,4,17,19-pentaen-6-ol], the EC50 was > 1000 nM.
For the molecule `Nc1cc(C2CCOC2)c2nc1-c1nnc(o1)C(O)(C(F)(F)F)CCCCC[C@@H]1CCCN21` (mixture of isomers) [Compound 126, (12R)-20-amino-18-(oxolan-3-yl)-6-(trifluoromethyl)-22-oxa-3,4,16,21-tetraazatetracyclo[15.3.1.12,5.012,16]docosa-1(21),2,4,17,19-pentaen-6-ol], the EC50 is > 1000 nM.
The figure for `Cn1cc(-c2cc(N)c3nc2N2CCC[C@H]2CCCCCC(O)(C(F)(F)F)C2=NN=C3O2)cn1` (mixture of isomers) [Compound 127, (12R)-20-amino-18-(1-methyl-1H-pyrazol-4-yl)-6-(trifluoromethyl)-22-oxa-3,4,16,21-tetraazatetracyclo[15.3.1.12,5.012,16]docosa-1(21),2,4,17,19-pentaen-6-ol] is < 500 nM; for `Nc1cc(-c2cn[nH]c2)c2nc1-c1nnc(o1)C(O)(C(F)(F)F)CCCCC[C@@H]1CCCN21` (mixture of isomers) [Compound 128, (12R)-20-amino-18-(1H-pyrazol-4-yl)-6-(trifluoromethyl)-22-oxa-3,4,16,21-tetraazatetracyclo[15.3.1.12,5.012,16]docosa-1(21),2,4,17,19-pentaen-6-ol] it is < 500 nM; for `Nc1cc(C2CCCCC2)c2nc1-c1nnc(o1)C(O)(C(F)(F)F)CCCCC[C@@H]1CCCN21` (mixture of isomers) [Compound 129, (12R)-20-amino-18-cyclohexyl-6-(trifluoromethyl)-22-oxa-3,4,16,21-tetraazatetracyclo[15.3.1.12,5.012,16]docosa-1(21),2,4,17,19-pentaen-6-ol] it is < 500 nM.
Next, `Nc1cc(-c2ccccn2)c2nc1-c1nnc(o1)C(O)(C(F)(F)F)CCCCC[C@@H]1CCCN21` (mixture of isomers) [Compound 132, (12R)-20-amino-18-(pyridin-2-yl)-6-(trifluoromethyl)-22-oxa-3,4,16,21-tetraazatetracyclo[15.3.1.12,5.012,16]docosa-1(21),2,4,17,19-pentaen-6-ol]: > 1000 nM; `Nc1cc(S(=O)(=O)c2ccccc2)c2nc1-c1nnc(o1)C(O)(C(F)(F)F)CCCCC[C@@H]1CCCN21` (mixture of isomers) [Compound 133, (12R)-20-amino-18-(benzenesulfonyl)-6-(trifluoromethyl)-22-oxa-3,4,16,21-tetraazatetracyclo[15.3.1.12,5.012,16]docosa-1(20),2,4,17(21),18-pentaen-6-ol]: < 500 nM; `Nc1cc(Cc2ccccc2)c2nc1-c1nnc(o1)C(O)(C(F)(F)F)CCCCC[C@@H]1CCCN21` (mixture of isomers) [Compound 137, (12R)-20-amino-18-benzyl-6-(trifluoromethyl)-22-oxa-3,4,16,21-tetraazatetracyclo[15.3.1.12,5.012,16]docosa-1(21),2,4,17,19-pentaen-6-ol]: < 500 nM.
Next, `Nc1cc(C(F)(F)F)c2nc1-c1nnc(o1)[C@@](O)(C(F)(F)F)c1cc(ccc1F)C=CC[C@@H]1CCCN21` (mixture of isomers) [Compound 138, (6R,15S)-23-amino-8-fluoro-6,21-bis(trifluoromethyl)-26-oxa-3,4,19,24-tetraazapentacyclo[18.3.1.12,5.17,11.015,19]hexacosa-1(24),2,4,7(25),8,10,12,20,22-nonaen-6-ol]: < 500 nM; `Nc1cc(C(F)(F)F)c2nc1-c1nnc(o1)[C@](O)(C(F)(F)F)c1cc(ccc1F)C=CC[C@@H]1CCCN21` (mixture of isomers) [Compound 139, (6S,15S)-23-amino-8-fluoro-6,21-bis(trifluoromethyl)-26-oxa-3,4,19,24-tetraazapentacyclo[18.3.1.12,5.17,11.015,19]hexacosa-1(24),2,4,7(25),8,10,12,20,22-nonaen-6-ol]: > 1000 nM.
Regarding `NC(=O)c1cc(N)c2nc1N1CCC[C@H]1CCCCCC(O)(C(F)(F)F)C1=NN=C2O1` (mixture of isomers) [Compound 142, (12R)-20-amino-6-hydroxy-6-(trifluoromethyl)-22-oxa-3,4,16,21-tetraazatetracyclo[15.3.1.12,5.012,16]docosa-1(21),2,4,17,19-pentaene-18-carboxamide], the EC50 was > 1000 nM.
The figure for `Nc1cc(S(=O)(=O)c2ccc(OC(F)(F)F)cc2)c2nc1-c1nnc(o1)C(O)(C(F)(F)F)CCCCC[C@@H]1CCCN21` (mixture of isomers) [Compound 143, (12R)-20-amino-18-[4-(trifluoromethoxy)benzenesulfonyl]-6-(trifluoromethyl)-22-oxa-3,4,16,21-tetraazatetracyclo[15.3.1.12,5.012,16]docosa-1(20),2,4,17(21),18-pentaen-6-ol] is < 500 nM; for `Nc1cc([S+]([O-])c2ccc(OC(F)(F)F)cc2)c2nc1-c1nnc(o1)C(O)(C(F)(F)F)CCCCC[C@@H]1CCCN21` (mixture of isomers) [Compound 145, (12R)-20-amino-18-[4-(trifluoromethoxy)benzenesulfinyl]-6-(trifluoromethyl)-22-oxa-3,4,16,21-tetraazatetracyclo[15.3.1.12,5.012,16]docosa-1(21),2,4,17,19-pentaen-6-ol] it is < 500 nM; for `Nc1cc(C(F)(F)F)c2nc1-c1nnc(o1)[C@](O)(C(F)(F)F)CCCCC[C@H]1CCCN21` (single isomer, unassigned) [Compound 6] it is 500 to 1000 nM.
Next, `Nc1cc(C(F)(F)F)c2nc1-c1nnc(o1)[C@@](O)(C(F)(F)F)CCCCC[C@H]1CCCN21` (single isomer, unassigned) [Compound 7]: < 500 nM; `CN1CCCCCCC(O)(C(F)(F)F)C2=NN=C(O2)c2nc1c(C(F)(F)F)cc2N` (single isomer, unassigned) [Compound 19, 17-amino-13-methyl-6,15-bis(trifluoromethyl)-19-oxa-3,4,13,18-tetrazatricyclo[12.3.1.12,5]nonadeca-1(18),2,4,14,16-pentaen-6-ol]: < 500 nM; `CN1CCCCCCC(O)(C(F)(F)F)C2=NN=C(O2)c2nc1c(C(F)(F)F)cc2N` (single isomer, unassigned) [Compound 20, 17-amino-13-methyl-6,15-bis(trifluoromethyl)-19-oxa-3,4,13,18-tetrazatricyclo[12.3.1.12,5]nonadeca-1(18),2,4,14,16-pentaen-6-ol]: 500 to 1000 nM.
